Experimental data as given in US20260376293A1, “METHODS FOR STUDYING GPR158 PHARMACOLOGY AND IDENTIFICATION OF ITS LIGANDS” (UNIVERSITY OF FLORIDA RESEARCH FOUNDATION, INCORPORATED, priority 2022, published 2026).

Tests used:
GPR158 = molecular target: T1, GPR158 (Homo sapiens, UniProt Q5T848); experiment: cADDIS fluorescence-based cAMP assay, HEK293T/17 cells; type: cell-based; conditions: 500 μM Gly, 15 min, forskolin; GPR158-RGS7/Gβ5, HEK293T/17
T1 construct: expressed in transfected cells; host or cells: HEK293T/17
T1 sequence (Q5T848 24-1215): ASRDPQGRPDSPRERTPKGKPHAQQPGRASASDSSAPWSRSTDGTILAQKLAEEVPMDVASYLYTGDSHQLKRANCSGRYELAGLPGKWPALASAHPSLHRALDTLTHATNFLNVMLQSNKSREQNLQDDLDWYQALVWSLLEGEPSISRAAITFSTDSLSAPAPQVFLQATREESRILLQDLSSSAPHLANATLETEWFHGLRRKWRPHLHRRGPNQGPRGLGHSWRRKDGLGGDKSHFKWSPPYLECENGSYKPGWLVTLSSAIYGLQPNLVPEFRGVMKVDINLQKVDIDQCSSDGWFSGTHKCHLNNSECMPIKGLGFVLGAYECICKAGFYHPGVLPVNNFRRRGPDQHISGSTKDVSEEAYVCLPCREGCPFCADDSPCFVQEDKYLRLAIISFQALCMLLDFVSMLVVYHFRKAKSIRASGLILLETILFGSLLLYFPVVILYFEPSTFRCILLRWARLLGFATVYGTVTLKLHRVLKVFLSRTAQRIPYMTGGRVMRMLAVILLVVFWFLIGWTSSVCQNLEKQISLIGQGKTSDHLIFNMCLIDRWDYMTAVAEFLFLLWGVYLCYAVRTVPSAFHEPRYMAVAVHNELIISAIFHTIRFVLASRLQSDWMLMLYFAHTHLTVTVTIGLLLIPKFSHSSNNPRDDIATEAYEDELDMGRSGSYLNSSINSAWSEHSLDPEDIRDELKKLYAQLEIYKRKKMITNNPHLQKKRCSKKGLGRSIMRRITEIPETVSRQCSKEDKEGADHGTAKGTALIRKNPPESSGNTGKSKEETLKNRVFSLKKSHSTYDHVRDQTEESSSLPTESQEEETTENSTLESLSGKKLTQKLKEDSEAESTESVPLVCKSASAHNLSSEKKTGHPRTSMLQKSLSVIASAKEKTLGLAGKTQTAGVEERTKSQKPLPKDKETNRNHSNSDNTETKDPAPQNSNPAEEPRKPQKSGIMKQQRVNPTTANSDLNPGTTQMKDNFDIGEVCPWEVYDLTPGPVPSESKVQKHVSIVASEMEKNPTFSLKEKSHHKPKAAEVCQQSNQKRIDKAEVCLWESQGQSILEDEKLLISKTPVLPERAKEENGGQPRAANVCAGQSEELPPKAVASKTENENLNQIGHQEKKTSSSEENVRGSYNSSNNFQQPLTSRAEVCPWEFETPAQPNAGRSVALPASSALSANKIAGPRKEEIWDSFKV
T1 sequence (P49802 1-495 partner): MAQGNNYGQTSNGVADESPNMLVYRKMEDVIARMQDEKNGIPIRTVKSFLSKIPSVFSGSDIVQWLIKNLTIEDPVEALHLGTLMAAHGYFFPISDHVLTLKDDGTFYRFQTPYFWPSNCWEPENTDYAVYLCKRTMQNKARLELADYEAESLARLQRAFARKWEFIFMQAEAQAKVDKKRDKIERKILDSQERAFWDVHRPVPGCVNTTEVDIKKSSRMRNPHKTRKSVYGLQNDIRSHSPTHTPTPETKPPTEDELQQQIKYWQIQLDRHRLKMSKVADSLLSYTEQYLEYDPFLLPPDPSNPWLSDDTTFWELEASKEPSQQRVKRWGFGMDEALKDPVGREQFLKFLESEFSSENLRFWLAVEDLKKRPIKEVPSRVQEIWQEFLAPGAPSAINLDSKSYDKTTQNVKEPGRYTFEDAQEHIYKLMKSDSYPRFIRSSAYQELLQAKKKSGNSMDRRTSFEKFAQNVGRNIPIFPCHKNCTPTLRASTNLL
T1 sequence (O14775 1-395 partner): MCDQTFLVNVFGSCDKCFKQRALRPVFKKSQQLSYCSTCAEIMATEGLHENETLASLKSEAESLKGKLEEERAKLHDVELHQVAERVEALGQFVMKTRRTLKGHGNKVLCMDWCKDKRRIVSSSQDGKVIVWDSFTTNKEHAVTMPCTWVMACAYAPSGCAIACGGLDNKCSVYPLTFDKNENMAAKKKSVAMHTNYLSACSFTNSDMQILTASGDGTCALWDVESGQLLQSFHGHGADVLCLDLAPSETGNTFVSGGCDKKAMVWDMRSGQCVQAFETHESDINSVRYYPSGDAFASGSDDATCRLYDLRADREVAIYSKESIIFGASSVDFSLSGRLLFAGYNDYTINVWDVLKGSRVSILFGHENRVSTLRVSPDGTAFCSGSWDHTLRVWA
Method: B. Effect of Gly on cAMP levels measured using CADDIS assay in HEK293T/17 cells (Gly conc. 500 μM). Binding of Gly to Cache domain of GPR158 blocks the GAP activity of GPR158-RGS7/Gβ5 complex on Gαo, resulting in lowering of CAMP levels. Data shown here represent the normalized fluorescence intensity upon Gly treatment (Mean±SEM from 3 independent experiments, Unpaired t-test, **p=0.0016)
In an effort to study the modulatory effects of Gly on CAMP through GPR158, the inventors took advantage of a fluorescence-based cAMP sensor cADDIS (Montana molecular) which involves Bacmam virus-based transduction of sensor into the cells (FIG. 17A).
Briefly, HEK293T/17 cells were co-transfected with plasmids for GPR158, RGS7 and Gβ5 (150 μg/ml, GPR158: RGS7: Gβ5:4:1:1) by electroporation (Maxcyte). […] Before Glycine treatment, baseline fluorescence intensity was recorded using a fluorescence intensity module (FI Ex: 485 nm, Em: 520 nm) in Pherastar FSX microplate reader (BMG Labtech) followed by forskolin treatment for 15 min. Subsequently, the cells were treated with 500 μM Gly and fluorescence intensity was recorded. […]
The cADDIS assay for Gαi results in increase in fluorescence when CAMP is decreasing in the cells after drug treatment.

GlyRs = conditions: cited from earlier work

For `NCC(=O)O` [glycine], the “cADDIS fluorescence change (cAMP decrease)” value (GPR158) is given as “significant increase in fluorescence” and the “affinity of GlyRs for glycine relative to mGlyR” value (GlyRs) is given as “an order of magnitude lower affinity”.
